The test system of one data set is contact pathway. The data set is described as follows: CAT in normal plasma with and without CTI. In kind it is biochemical.
The test system of data set [1] is FVIII-inhibited human whole blood. Briefly: Rotation thromboelastometry (ROTEM). Conditions: ROTEM, 0.044 pM TF. On the procedure: NASPs (0.4-11 μg/mL) were studied in fresh citrated human whole blood by rotation thromboelastometry (ROTEM), an assay that allows continuous visco-elastic assessment of whole blood clot formation and firmness. Blood was incubated with anti-human FVIII plasma raised in goat (Baxter Bioscience, Austria) at 50 BU/mL to simulate hemophilic conditions. Clotting was triggered with 0.044 pM tissue factor (TF) (PRP reagent, Thrombinoscope BV) in the presence of 40 μg/mL CTI (Haematologic Technologies Inc., Essex Junction, Vt., USA). Then 300 μL of the pre-warmed (37° C.) FVIII-inhibited blood was recalcified with 20 μL of a 0.2 M CaCl2 solution. Clot formation was monitored using a ROTEM instrument (Pentapharm Munich, Germany) at 37° C. The final assay concentration of rTF was 44 fM. The ROTEM recording was started immediately and measured for at least 120 min. Each blood sample was analyzed in two independent measurements.
The thromboelastographic parameters of clotting time (CT), clot formation time (CFT) and maximum clot firmness (MCF) were recorded in accordance with the manufacturer's instructions. The first derivative of the thromboelastogram data is plotted to obtain a graph of velocity (mm/s) against time (s). From this graph, the maximum velocity (maxV) and the time at which the maximum velocity is reached (maxV-t) are also determined.

For another data set, the system named is FVIII-inhibited plasma. Briefly: Thrombin generation assay (CAT) in FVIII-inhibited plasma. It is filed as biochemical, human. On the procedure: The procoagulant activity of the sulfated polysaccharides was assessed by the Thrombin Generation Assay (TGA). The influence of each sulfated polysaccharide on thrombin generation was measured in duplicate via CAT in a Fluoroskan Ascent® reader (Thermo Labsystems, Helsinki, Finland; filters 390 nm excitation and 460 nm emission) following the slow cleavage of the fluorogenic substrate Z-Gly-GIy-Arg-AMC (Hemker H C. Pathophysiol Haemost Thromb (2003) 33(4):15). To each well of a 96 well microplate (Immulon 2HB, clear U-bottom; Thermo Electron) 80 μL of pre-warmed (37° C.) goat anti FVIII antibody treated human normal plasma pool was added. For triggering thrombin generation by tissue factor, 104 of PPP reagent containing a certain amount of recombinant human tissue factor (rTF) and phospholipid vesicles composed of phosphatidylserine, phosphatidylcholine and phosphatidylethanolamine (final concentration of 4 μM) (Thrombinoscope BV, Maastricht, The Netherlands) was added. For studying the procoagulant activity of sulfated polymers a final TF concentration of 1 pM was used to provide FVIII and TFPI sensitivity of the test system. Just prior to putting the plate into the pre-warmed (37° C.) reader, 10 µL of test or reference sample or calibrator compound was added. Thrombin generation was started by dispensing 204 of FluCa reagent (Thrombinoscope BV, Maastricht, The Netherlands) containing fluorogenic substrate and Hepes buffered CaCl2 (100 mM) into each well and fluorescence intensity was recorded at 37° C.
The parameters of the resulting thrombin generation curves were calculated using the Thrombinoscope™ software (Thrombinoscope BV, Maastricht, The Netherlands) and thrombin calibrator to correct for inner filter and substrate consumption effects (Hemker H C, Pathophysiol Haemost Thromb (2003) 33(4):15). With the thrombin calibrator as a reference, the molar concentration of thrombin in the test wells was calculated by the software. The thrombin amounts at the peak and peak times of each thrombin generation curve (peak thrombin, nM) were plotted against sulfated polysaccharide concentrations resulting in the procoagulant profile of these compounds. The thrombin generation assay results are illustrated in the figures appended hereto. From these plots half maximal effective concentrations (EC50) values are determined using a sigmoidal curve fit. The EC50 represents the concentration at which the half maximal thrombin peak is reached.

A further data set concerns the target T1, full-length TFPI (Homo sapiens, UniProt P10646).
T1 construct: 0.5 μg/mL full-length TFPI (aa 1-276, constitutively produced by SKHep1); made in house; host or cells: SKHep1
T1 sequence (P10646 29-304): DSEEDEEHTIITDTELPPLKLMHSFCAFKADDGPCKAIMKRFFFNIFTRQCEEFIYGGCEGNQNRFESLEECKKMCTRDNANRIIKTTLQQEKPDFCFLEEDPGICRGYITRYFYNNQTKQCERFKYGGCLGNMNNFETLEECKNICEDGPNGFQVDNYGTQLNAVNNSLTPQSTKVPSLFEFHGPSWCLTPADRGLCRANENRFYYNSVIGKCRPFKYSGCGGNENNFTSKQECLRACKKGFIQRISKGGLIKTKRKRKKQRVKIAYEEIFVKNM
Briefly: Dilute prothrombin time assay with added TFPI (TFPI-dPT). In kind it is biochemical. On the procedure: A dilute prothrombin time assay with added TFPI (TFPI-dPT) was used to evaluate the TFPI-inhibiting effect of the different NASPs. Pooled normal human plasma (George King Biomedical, Overland Park, Kans.) was pre-incubated with 0.5 μg/mL full-length TFPI (aa 1-276, constitutively produced by SKHep1) and the respective NASP (0-5 μg/mL) for 15 min at RT. TF reagent TriniClot PT Excel S (Trinity Biotech, Wicklow, Ireland), diluted in Hepes-buffered saline 1:200 with 0.5% BSA was added to the plasma samples on an ACL Pro Elite hemostasis analyzer (Instrumentation Laboratory, Bedford, Mass.). Clotting was initiated with 25 mM CaCl2). The volume ratio of plasma:TF:CaCl2 was 1:1:1.
For data analysis, TFPI-dPT is plotted against the log concentration. Half maximal effective concentrations (EC50) values are determined using a sigmoidal curve fit.

The subject of the next data set is normal human plasma. The data set is described as follows: Activated partial thromboplastin time assay (aPTT). In kind it is biochemical. On the procedure: The aPTT assay was performed to study anticoagulant activities of NASP. In brief, 50 μL of thawed normal human plasma pool (George King Biomedical, Overland Park, Kans.) was mixed with 5 μL of NASP sample (0-60 μg/mL final plasma concentration). NASPs were diluted in imidazole buffer (3.4 g/L imidazole; 5.85 g/L NaCl, pH 7.4) containing 1% albumin (Baxter, Austria). After addition of 50 μL aPTT reagent (STA APTT, Roche) the samples were incubated for 4 min at 37° C. Clotting was initiated by 50 μL of 25 mM CaCl2 solution (Baxter, Austria) and recorded for up to 5 min. All pipetting steps and clotting time measurements were carried out with an ACL Pro Elite (Instrumentation Laboratory, Bedford, Mass.) instrument. Samples were run in duplicate.
For data analysis, clotting time is plotted against the NASP concentration. Concentrations where the clotting time is 50% increased over the normal plasma control are determined using a linear curve fit.

The record followed here is patent publication US20200215099A1, “NON-ANTICOAGULANT SULFATED OR SULFONATED POLYSACCHARIDES” (Baxalta Incorporated, priority 2012, published 2020).

“Also recorded” adds a separate entry of the source.

For orientation: EC50 means the midpoint of the concentration-response curve. As for “sulfated maltopentaose [Maltopentaose (Baxter)]”, in the data set with contact pathway, the “activation of the contact pathway (in words)” value is “No activation of the contact pathway”. Also, the “concentration activating the contact pathway” value with contact pathway (normal plasma, 1 pM hTF, 4 μM PL, ±41 μg/mL CTI) was above 33000 ng/mL. For the same substance, the “restoration of coagulation (in words)” value in data set [1] is “restore coagulation parameters of FVIII-inhibited whole blood”; in data set [1] (listed as sulfated maltopentose (15% S)), “restores coagulation to normal in FVIII-inhibited blood”. For the same substance, the “procoagulant activity (in words)” value in the data set with FVIII-inhibited plasma is reported as “good procoagulant activity”. Also, the EC50 in the data set with FVIII-inhibited plasma (half maximal thrombin peak, 1 pM hTF, 4 μM PL) was 2.4 µg/mL. Also, the “EC50 TFPI-dPT” value at full-length TFPI (normal human plasma with rec. FL-TFPI) worked out at 0.15 µg/mL. The “reversal of the effect of rec. FL-TFPI (in words)” value at full-length TFPI (normal human plasma, listed as sulfated maltopentaose (15% S)) is recorded as “reverses the effect of rec. FL-TFPI in plasma; also recorded: reverses the effect of recombinant Full Length-Tissue Factor Pathway Inhibitor”. For the same substance, the “Ratio aPTT/CAT” value in the data set on normal human plasma (50% increase clotting time / CAT EC50) worked out at 1.4. For the same substance, the “anticoagulant activity (in words)” value with normal human plasma (aPTT compared with procoagulant CAT concentration) is on record as “become anticoagulant within their procoagulant window”. Also, the “50% Increase Clotting Time” value in the data set with normal human plasma (concentration where clotting time is 50% increased over normal plasma control) was found to be 3.3 µg/mL.
